Reference: patent publication US20120270935A1, “FORMULATIONS” (priority 2009, published 2012)
≈ marks a conversion by molar mass, not a printed value. Where two headings read alike, the source gives them in different places.

How the values were obtained:
S. aureus ATCC 29213 [1] = assay: MIC assay; assay type: cell-based, Staphylococcus aureus; settings: Mueller-Hinton broth pH 7.0
From the text: (§1) (a) staphylococci. The Staphylococcus aureus strain used was ATCC 29213. S. aureus and other staphylococci are common causes of a wide range of skin, skin structure and wound infections; S. aureus is also known to exacerbate eczema. The ATCC 29213 strain is known to be susceptible to beta-lactam antibiotics such as methicillin. The Staphylococcus epidermidis strain used was NCTC 11047. Staph. epidermidis forms part of the resident flora of skin and is an opportunistic pathogen which can cause biofilms to grow for instance on plastic surgical implants such as catheters. Unless otherwise stated, the staphylococci were cultured and maintained on Mueller-Hinton Medium (agar and broth) at pH 7.2; cultures were incubated aerobically at 37° C. for 19-20 hours, at pH 7 (±0.2). (b) C. striatum NCTC 764. Corynebacterium striatum is closely related to organisms (aerobic diphtheroids of the genus Corynebacterium) that cause body odour. It was cultured and maintained on Mueller-Hinton medium (agar and broth). All cultures were incubated aerobically at 37° C. for 72 hours, at pH 7 (±0.2). (c) streptococci. The strains tested were S. mutans ATCC 25175 and S. pyogenes ATCC 12344. S. mutans is a Gram-positive, microaerophilic bacterium which plays a significant role in dental caries and in infective endocarditis. […]
This is a standard international method for quantitatively assessing the antimicrobial activity of a compound in a liquid medium. […]
The wells were inoculated with a liquid suspension of freshly grown micro-organism and incubated under the conditions described above. […] The MIC value was recorded as the lowest concentration of test compound required to inhibit microbial growth, ie the lowest concentration for which the liquid in the well remained clear. […]
(§2) Example 8 was repeated (except for the supplemented DDA assays), using S. aureus ATCC 29213 as the test organism. […] In the DDA assays, 200 μg is of each compound was loaded onto each disc: the culture medium was Mueller-Hinton agar at pH 7.0, and results were recorded after overnight incubation at 37° C. in air. […]

P. acnes NCTC 737 = assay: Disc diffusion assay (DDA); assay type: cell-based, Propionibacterium acnes; settings: 200 μg compound per disc, DMSO
Experimental: The first test micro-organism used was Propionibacterium acnes NCTC 737. This is a propionibacterial strain and is the type strain of the […]; it is fully susceptible to antibiotics.
The propionibacteria were cultured and maintained on Wilkins-Chalgren Anaerobe Medium (agar and broth) at pH 6.0; all cultures were incubated anaerobically at 37° C. for 72 hours.
This is an internationally recognised standard method for qualitatively assessing the antimicrobial activity of a compound.
A sterile paper disc was impregnated with a sample of the test compound in a suitable solvent and 30 minutes allowed for the solvents to evaporate (where possible). The disc was then placed on an agar plate onto which the test micro-organism had been inoculated. The plate was then incubated under the conditions described above, following which it was examined visually for signs of microbial growth. If the test compound had antimicrobial activity, a circular zone of no growth would be obtained around the disc. The diameter of this zone of “inhibition” was measured using a ProtoCOL™ automated zone sizer (Synbiosis, Cambridge, UK). In general, a greater diameter and/or area of the zone of inhibition indicates a greater antimicrobial activity in the relevant test compound, although other factors such as test compound mobility through the agar gel may also influence the result.
DDA assays, as described above, were carried out using as the test formulation the gel prepared in Example 2B above. Also tested was the Example 2B gel minus the Klucel™ thickener, which was also subjected to MIC and MBC assays. For the DDAs, which were performed in triplicate, 100 μl of the relevant formulation was loaded onto each disc, and zones of inhibition were recorded after 3 days' anaerobic incubation at 37° C. The MIC and MBC tests were performed in duplicate and the results recorded after 3 days and 7 days respectively, post-subculture onto drug-free medium. […]

S. aureus ATCC 29213 [2] = assay: Disc diffusion assay (DDA); assay type: cell-based, Staphylococcus aureus; settings: 200 μg per disc, Mueller-Hinton agar pH 7.0, overnight at 37° C. in air
From the text: as §1, with “endocarditis. Streptococcus pyogenes is associated with skin, soft tissue, burn and wound infections.” for “endocarditis.”
A sterile paper disc was impregnated with a sample of the test compound in a suitable solvent and 30 minutes allowed for the solvents to evaporate (where possible). […] The diameter of this zone of “inhibition” was measured using a ProtoCOL™ automated zone sizer (Synbiosis, Cambridge, UK). […]
as §2

What does the source list for `CC(=O)c1c(O)c(C)c(O)c2c1OC1=CC(=O)C(C(C)=O)C(=O)C12C` (stereo not drawn) [Usnic acid, 2,6-diacetyl-7,9-dihydroxy-8,9b-dimethyl-1,3(2H,9bh)-dibenzofurandione]?
MIC (S. aureus ATCC 29213 [1]; Staphylococcus aureus, ATCC29213, read-out: MIC): 31.2 µg/mL (≈ 90.8 µM); zone of inhibition at 200 µg/disc (P. acnes NCTC 737; Cutibacterium acnes, NCTC737, read-out: DDA zone diameter, unsupplemented medium): 23.9 mm; zone of inhibition at 200 µg/disc (S. aureus ATCC 29213 [2]; Staphylococcus aureus, ATCC29213, read-out: DDA zone diameter): 13.6 ± 0.3 mm

`CC(=O)c1c([O-])c(C)c([O-])c2c1OC1=CC(=O)C(C(C)=O)C(=O)C12C.[Cu+2]` (stereo not drawn) [Copper usnate, copper (II) usnate] was tested. Which MIC (S. aureus ATCC 29213 [1]) did it give?
Its MIC is 7.8 µg/mL.

And the “DDA zone diameter, unsupplemented medium” value (P. acnes NCTC 737)?
The value was 46.7 ± 0.4 mm.

And the DDA zone diameter (S. aureus ATCC 29213 [2])?
Its DDA zone diameter is 14.8 ± 0.3 mm.
